This experiment concerns glycogen synthase. Description: Glycogen Synthase (GS) Assay. The format is biochemical. The note with it: for EC50: compound concentration needed to give 50% maximum activation; for GS SC200: compound concentration needed to stimulate 200% of the enzyme activity. How it is done: Twelve μL per well of substrate solution containing glycogen (4.32 mg/ml), 2.67 mM UDP-glucose, 21.6 mM phospho(enol)pyruvate and 2.7 mM NADH in 30 mM glycylglycine, pH 7.3 buffer was added into a polystyrene 384-well assay plate (BD Biosciences).
Compound solutions (8 μL/well) at various concentrations (0-300 μM) were added to the assay plate (columns 5-24). Compound solution contains 30 mM glycylglycine, pH 7.3, 40 mM KCl, 20 mM MgCl2, 9.2% DMSO, with (columns 15-24) or without (columns 5-14) 20 mM glucose 6-phosphate.
Enzyme solution (12 μL/well) containing glycogen synthase (16.88 μg/ml), pyruvate kinase (0.27 mg/ml), lactate dehydrogenase (0.27 mg/ml) in 50 mM Tris-HCl, pH 8.0, 27 mM DTT and bovine serum albumin (BSA, 0.2 mg/ml) was added to the assay plate (columns 3-24). As a blank control, enzyme solution without glycogen synthase was added into the top half wells of columns 1-2. To the bottom half wells of columns 1-2 were added a known activator, glucose 6-phosphate (at final concentration 5 mM) in addition to the enzyme solution. The reaction mixture was incubated at room temperature. The assay plate was then read for absorbance at 340 nm on an Envision reader every 3 minutes up to a total of 15 minutes.
The enzyme activity (with or without compound) was calculated by the reaction rate and represented by the optical density change (δOD) per minute. Percent stimulation of glycogen synthase activity by a compound at various concentrations was calculated by the following formula: […]
wherein Rs is the reaction rate of the enzyme in the presence of compound and Rt is the reaction rate of the enzyme in the absence of compound.
SC200 is defined as the compound concentration that is needed to stimulate 200% of the enzyme activity. EC50 is defined as the compound concentration that is needed to give 50% maximum activation.

Structures are written as SMILES.

By EC50 is commonly meant the concentration at which the effect is half-maximal. Turning to `O=c1c2cccc(COc3ccc(-c4cc(F)c(F)cc4Cl)cc3)c2[nH]n1C[C@H](O)CO` [Example 22, 7-(2′-Chloro-4′,5′-difluoro-biphenyl-4-yloxymethyl)-2-((S)-2,3-dihydroxy-propyl)-1,2-dihydro-indazol-3-one], the EC50 was found to be 300 nM and the “GS SC200” value was found to be 0.16 µM.
In the same order, the values of `O=C(O)Cn1[nH]c2c(COc3ccc(-c4cc(F)c(F)cc4F)cc3)cccc2c1=O` [Example 4, [3-oxo-7-(2′,4′,5′-trifluoro-biphenyl-4-yloxymethyl)-1,3-dihydro-indazol-2-yl]-acetic acid] are 1200 nM and 0.69 µM.
Consider `COc1cc(F)c(F)cc1-c1ccc(OCc2cccc3c(=O)n(C[C@@H](O)CO)[nH]c23)cc1` [Example 17, 7-(4′,5′-Difluoro-2′-methoxy-biphenyl-4-yloxymethyl)-2-((R)-2,3-dihydroxy-propyl)-1,2-dihydro-indazol-3-one], for which it took 270 nM to reach a half-maximal effect (EC50) and the “GS SC200” value was 0.06 µM.
The matching figures for `COCCn1[nH]c2c(COc3ccc(-c4cc(F)c(F)cc4OC)cc3)cccc2c1=O` [Example 7, 7-(4′,5′-Difluoro-2′-methoxy-biphenyl-4-yloxymethyl)-2-(2-methoxy-ethyl)-1,2-dihydro-indazol-3-one]: 370 nM and 0.11 µM.
As for `Cn1[nH]c2c(COc3ccc(-c4cc(F)c(F)cc4F)cc3)cccc2c1=O` [Example 2, 2-Methyl-7-(2′,4′,5′-trifluoro-biphenyl-4-yloxymethyl)-1,2-dihydro-indazol-3-one], the concentration giving a half-maximal response (EC50) amounted to 1780 nM and the “GS SC200” value worked out at 0.49 µM.
For `COc1cc(F)c(F)cc1-c1ccc(OCc2cccc3c(=O)n(-c4cccnc4)[nH]c23)cc1` [Example 12, 7-(4′,5′-Difluoro-2′-methoxy-biphenyl-4-yloxymethyl)-2-pyridin-3-yl-1,2-dihydro-indazol-3-one], the EC50 stood at 780 nM and the “GS SC200” value was determined as 0.60 µM.
In the same order, the values of `O=c1c2cccc(COc3ccc(-c4cc(F)c(F)cc4F)cc3)c2[nH]n1C[C@H](O)CO` [Example 16, 2-((S)-2,3-Dihydroxy-propyl)-7-(2′,4′,5′-trifluoro-biphenyl-4-yloxymethyl)-1,2-dihydro-indazol-3-one] are 580 nM and 0.41 µM.
As for `COc1cc(F)c(F)cc1-c1ccc(OCc2cccc3c(=O)n(C[C@H](O)CO)[nH]c23)cc1` [Example 18, 7-(4′,5′-Difluoro-2′-methoxy-biphenyl-4-yloxymethyl)-2-((S)-2,3-dihydroxy-propyl)-1,2-dihydro-indazol-3-one], the 50% effective concentration (EC50) stood at 250 nM and the “GS SC200” value was 0.07 µM.
In the same order, the values of `COc1cc(F)c(F)cc1-c1ccc(OCc2cccc3c(=O)n(C)[nH]c23)cc1` [Example 3, 7-(4′,5′-Difluoro-2′-methoxy-biphenyl-4-yloxymethyl)-2-methyl-1,2-dihydro-indazol-3-one] are 330 nM and 0.04 µM.
As to `Cc1cc(F)c(F)cc1-c1ccc(OCc2cccc3c(=O)n(CC(=O)O)[nH]c23)cc1.Cl` [Example 9, [7-(4′,5′-Difluoro-2′-methyl-biphenyl-4-yloxymethyl)-3-oxo-1,3-dihydro-indazol-2-yl]acetic acid Hydrochloride], the EC50 was found to be 420 nM and the “GS SC200” value came to 0.33 µM.
As to `Cc1cc(F)c(F)cc1-c1ccc(OCc2cccc3c(=O)n(C[C@@H](O)CO)[nH]c23)cc1` [Example 19, 7-(4′,5′-Difluoro-2′-methyl-biphenyl-4-yloxymethyl)-2-((R)-2,3-dihydroxy-propyl)-1,2-dihydro-indazol-3-one], a half-maximal effect (EC50) was put at 230 nM and the “GS SC200” value turned out to be 0.10 µM.
In the same order, the values of `O=c1c2cccc(COc3ccc(-c4cc(F)c(F)cc4Cl)cc3)c2[nH]n1-c1cccnc1` [Example 14, 7-(4′,5′-Difluoro-2′-chloro-biphenyl-4-yloxymethyl)-2-pyridin-3-yl-1,2-dihydro-indazol-3-one] are 1860 nM and 1.14 µM.
For `COc1cc(F)c(F)cc1-c1ccc(OCc2cccc3c(=O)n(CC(=O)O)[nH]c23)cc1` [Example 5, [7-(4′,5′-Difluoro-2′-methoxy-biphenyl-4-yloxymethyl)-3-oxo-1,3-dihydro-indazol-2-yl]-acetic acid], the EC50 amounted to 200 nM and the “GS SC200” value was determined as 0.06 µM.
On to `COc1cc(F)c(F)cc1-c1ccc(OCc2cccc3c(=O)n(-c4ccc(F)cc4)[nH]c23)cc1` [Example 11, 7-(4′,5′-Difluoro-2′-methoxy-biphenyl-4-yloxymethyl)-2-(4-fluoro-phenyl)-1,2-dihydro-indazol-3-one], for which the midpoint of the response, the EC50, lay at 1370 nM and the “GS SC200” value was 2.01 µM.
For the compound `O=c1c2cccc(COc3ccc(-c4cc(F)c(F)cc4F)cc3)c2[nH]n1CCO` [Example 8, 2-(2-Hydroxy-ethyl)-7-(2′,4′,5′-trifluoro-biphenyl-4-yloxymethyl)-1,2-dihydro-indazol-3-one], a half-maximal response (EC50) required 770 nM and the “GS SC200” value was 0.22 µM.
The matching figures for `Cc1cc(F)c(F)cc1-c1ccc(OCc2cccc3c(=O)n(-c4ccc(F)cc4)[nH]c23)cc1` [Example 10, 7-(4′,5′-Difluoro-2′-methyl-biphenyl-4-yloxymethyl)-2-(4-fluoro-phenyl)-1,2-dihydro-indazol-3-one]: 1470 nM and 1.86 µM.
For `Cl.O=c1c2cccc(COc3ccc(-c4cc(F)c(F)cc4F)cc3)c2[nH]n1-c1cccnc1` [Example 13, 2-Pyridin-3-yl-7-(2′,4′,5′-trifluoro-biphenyl-4-yloxymethyl)-1,2-dihydro-indazol-3-one Hydrochloride], a half-maximal effect (EC50) was put at 4010 nM and the “GS SC200” value was 2.75 µM.
The matching figures for `COCCn1[nH]c2c(COc3ccc(-c4cc(F)c(F)cc4F)cc3)cccc2c1=O.Cl` [Example 6, 2-(2-Methoxy-ethyl)-7-(2′,4′,5′-trifluoro-biphenyl-4-yloxymethyl)-1,2-dihydro-indazol-3-one Hydrochloride]: 790 nM and 0.52 µM.
Consider `Cc1cc(F)c(F)cc1-c1ccc(OCc2cccc3c(=O)n(C[C@H](O)CO)[nH]c23)cc1` [Example 20, 7-(4′,5′-Difluoro-2′-methyl-biphenyl-4-yloxymethyl)-2-((S)-2,3-dihydroxy-propyl)-1,2-dihydro-indazol-3-one], for which the EC50 is 340 nM and the “GS SC200” value turned out to be 0.11 µM.
In the same order, the values of `Cc1cc(F)c(F)cc1-c1ccc(OCc2cccc3c(=O)n(C)[nH]c23)cc1` [Example 1, 7-(4′,5′-Difluoro-2′-methyl-biphenyl-4-yloxymethyl)-2-methyl-1,2-dihydro-indazol-3-one] are 240 nM and 0.13 µM.
Consider `O=c1c2cccc(COc3ccc(-c4cc(F)c(F)cc4Cl)cc3)c2[nH]n1C[C@@H](O)CO` [Example 21, 7-(2′-Chloro-4′,5′-difluoro-biphenyl-4-yloxymethyl)-2-((R)-2,3-dihydroxy-propyl)-1,2-dihydro-indazol-3-one], for which the response was half-maximal at 260 nM (EC50) and the “GS SC200” value turned out to be 0.25 µM.
As for `O=c1c2cccc(COc3ccc(-c4cc(F)c(F)cc4F)cc3)c2[nH]n1C[C@@H](O)CO` [Example 15, 2-((R)-2,3-Dihydroxy-propyl)-7-(2′,4′,5′-trifluoro-biphenyl-4-yloxymethyl)-1,2-dihydro-indazol-3-one], the response was half-maximal at 680 nM (EC50) and the “GS SC200” value was 0.32 µM.

The record behind these values is patent US20110112147A1, “INDAZOLONE ANALOGS AS GLYCOGEN SYNTHASE ACTIVATORS” (priority 2009, published 2011).
